The text below walks through data of PubChem BioAssay (NCI).

Each structure is given as a SMILES string.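 Protocol summary: plate cells (96-well), add compound at 5 concentrations, incubate 48 h, interpolate endpoints linearly. The concentration for 50% growth inhibition is given as GI50. TGI is the concentration that stops growth completely.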

Common to all, as to experiment: NCI anticancer screen, dose series, 48 h
For assay [1], the system named is HOP-62 NSCLC.
Assay [2] has as its system U251 CNS.
The subject of assay [3] is SK-MEL-5 melanoma.
Assay [4] has as its system M14 melanoma.
Assay [5] relates to HCC-2998 colon.
Assay [6] relates to UACC-257 melanoma.
In assay [7] the test system is SK-OV-3 ovarian.
In assay [8] the test system is SF-268 CNS.
Assay [9] deals with SNB-19 CNS.
Assay [10] has as its system SN12C renal.

`Cc1[nH]c2ccccc2c1C1CC(=O)NC1=O` (stereo not drawn): the TGI in assay [1], in assay [2], in assay [3], in assay [4], in assay [5] and in assay [6] was over 100 µM in each case. This molecule also registered a TGI in [7] of over 100 µM.
On to `CN(C)Cc1cccc(CN(C)C)[c]1[Sn]([Br])([c]1ccccc1)[c]1ccccc1`, for which the GI50 was 3.77 µM in assay [8]; 18.7 µM in assay [9]; 17.2 µM in [1]; 3710 nM in assay [2]; 11 µM in assay [3]; 15900 nM in assay [4]. Also, the GI50 in assay [10] is 16.7 µM; in assay [6], 16 µM; in assay [7] it was 14.3 µM. For the same molecule, the TGI amounted to 17.5 µM in [8]; 48.4 µM in assay [9]; 39.5 µM in assay [1]; 15.5 µM in assay [2]; 24.7 µM in assay [3]; 30.6 µM in assay [4]. In addition, the TGI is 35.6 µM in assay [10], 53.7 µM in [6] and 30.6 µM in [7].
On to `C[C@@H](NC1CCC[C@@H]1O)c1ccccc1` (stereo partly drawn), for which the TGI in [9], in assay [1], in assay [2], in assay [3], in assay [4] and in assay [10] was over 100 µM in each case. Besides, the TGI in assay [5], in assay [6] and in assay [7] was over 100 µM each time.
Consider `CC(=O)Nc1ccc2oc(=O)c3ccccc3c2c1`, for which the TGI in assay [8], in [9], in assay [1], in assay [2], in assay [3] and in [4] was over 100 µM in each case. In addition, the TGI in [10], in assay [5] and in assay [6] was over 100 µM each time.
In the case of `N#Cc1ccc(-c2nc3ccc(Cl)cc3[nH]2)cc1`, the TGI in assay [9], in [1], in [2], in assay [3], in assay [4] and in assay [10] was over 100 µM each time. The TGI in assay [5] and in assay [7] was over 100 µM in each case.
With `COc1ccc(C(=O)C(Br)C(Br)C(=O)O)cc1` (stereo not drawn), the TGI in assay [8], in assay [9], in assay [1], in assay [2], in [3] and in [4] was over 100 µM throughout. Besides, the TGI in assay [10], in assay [6] and in assay [7] was over 100 µM each time.
Turning to `COC1CC2C=CC3C4OC2(/C(C)=C/C(C)C(C(C)O)OC1=O)C3C(O)C(C)C4OC(=O)c1ccc[nH]1` (stereo not drawn), the TGI in [8], in assay [9], in assay [1], in assay [2], in assay [3] and in assay [4] was over 100 µM in each case. Further, the TGI in assay [10], in assay [5] and in [6] was over 100 µM throughout.
With `CCN(CC)CCOC(=O)/C(=C/c1ccc(OC)cc1)c1cc(OC)c(OC)c(OC)c1`, the TGI in [8] was over 100 µM; in [9], 80.6 µM; in assay [1] it was 31.7 µM; in [2] it was 25.5 µM; in assay [3], 11.4 µM; in [4] it was 19.9 µM. The TGI was found to be 57.5 µM in [10] and 19.3 µM in assay [6].
Take `NCC1OC(n2cnc3c(=O)[nH]c(N)nc32)C(O)C1O` (stereo not drawn): the TGI in assay [8], in [9], in assay [1], in assay [2], in [3] and in [4] was over 100 µM each time. The TGI in assay [10], in assay [6] and in [7] was over 100 µM throughout.
For the molecule `CC1Cc2c(N)nc(N3CCOCC3)nc2NC1=O` (stereo not drawn), the TGI in [9], in assay [1], in [2], in [3], in assay [4] and in assay [10] was over 100 µM in each case. The TGI in assay [6] and in assay [7] was over 100 µM in each case.
As for `CC(Oc1ccc(OCC2CCCCC2)cc1)C(=O)O` (stereo not drawn), the TGI in [8], in assay [2], in assay [3], in assay [4], in assay [10] and in assay [6] was over 100 µM in each case. For the same molecule, the TGI in assay [7] was over 100 µM.
Turning to `O=C1CC2C(=O)C1C(C(=O)O)C2C(=O)O` (stereo not drawn), the TGI in assay [8], in assay [9], in assay [1], in [2], in assay [3] and in assay [4] was over 100 µM throughout. In addition, the TGI in [10], in assay [6] and in [7] was over 100 µM each time.
Consider `C/C=C1\C(=O)O[C@@H]2C1C[C@@H]1O[C@H]2[C@H](C)CCC/C(C)=C/CC[C@@]1(C)O` (stereo partly drawn), for which the GI50 is 8.45 µM in assay [8]; 19.4 µM in assay [9]; 10300 nM in [2]; 3.03 µM in assay [3]; 3.54 µM in assay [10]; 2950 nM in assay [5]. The GI50 in assay [6] is 4.2 µM; in assay [7], 14.1 µM. For the same molecule, the TGI in [8] amounted to 23 µM; in assay [9], 40.6 µM; in assay [2] it was 23.6 µM; in [3] it was 9.4 µM; in assay [10], 13 µM; in [5], 6.33 µM. For the same molecule, the figures for the TGI in assay [6] and in assay [7] were 10.9 µM and 37.4 µM, respectively.
`N#CC(C(=O)CCC(=O)Nc1ccc(Cl)cc1)c1ccccc1Cl` (stereo not drawn): the TGI in assay [8], in [9], in assay [2], in assay [3], in assay [4] and in assay [10] was over 100 µM throughout. Moreover, the TGI in assay [6] and in assay [7] was over 100 µM throughout.
As to `CC([C@H]1CCC2C3CCC4CC5(CC[C@]4(C)C3CC[C@@]21C)c1ccccc1C(=O)N5C)N(C)C` (stereo partly drawn), the TGI was over 100 µM in [8]; over 100 µM in assay [9]; over 100 µM in assay [1]; over 100 µM in assay [2]; 42.9 µM in assay [3]; 38.7 µM in assay [4]. Besides, the TGI in assay [10], in assay [5] and in [7] was over 100 µM throughout.
Regarding `COc1ccc(-c2nc(N)c3ncn(C4OC(CO)C(O)C4O)c3n2)cc1` (stereo not drawn), the TGI in assay [8], in assay [9], in assay [1], in assay [2], in assay [3] and in assay [4] was over 100 µM each time. The TGI in assay [10], in assay [6] and in assay [7] was over 100 µM in each case.
For `CC1=C(/C=C/C2=CC(=C\C(=O)O)/CC(C3=C(C)CCCC3(C)C)C2)C(C)(C)CCC1` (stereo not drawn), the TGI in assay [8] is 36.1 µM; in [9], 27.7 µM; in assay [1] it was 27 µM; in [2], 23.1 µM; in [3], 28 µM; in [4], 28.5 µM. The TGI in assay [10] is 32.3 µM; in [6], 29.5 µM; in assay [7], 27.7 µM.
Turning to `O=C1c2cccc3cc([N+](=O)[O-])cc(c23)C(=O)N1CCN1CCCC1`, the GI50 in [8] was 0.601 µM; in assay [9] it was 0.35 µM; in assay [1], 0.312 µM; in assay [2], 315 nM; in [3], 0.293 µM; in assay [4], 451 nM. Further, the GI50 in [10] was 0.228 µM; in [5], 582 nM; in assay [7] it was 0.252 µM. Also, the TGI in [8] turned out to be 4.27 µM; in [9], 2.42 µM; in assay [1], 1.7 µM; in assay [3] it was 0.943 µM; in assay [4] it was 2.08 µM; in assay [10], 1.11 µM. The TGI is 2.74 µM in [5] and 1.11 µM in assay [7].
Take `CCOC(=O)CNC1C(NC(C)=O)C(OC)OC2COC(c3ccccc3)OC21` (stereo not drawn): the TGI in assay [8], in assay [9], in assay [2], in assay [3], in [4] and in assay [10] was over 100 µM throughout. Further, the TGI in assay [5], in [6] and in assay [7] was over 100 µM throughout.
Regarding `COc1cccc(-c2nc(-c3ccc(NC(=O)c4ccccc4)cc3)[nH]c2-c2ccnc(Br)c2)c1`, the GI50 in assay [8] is 6.13 µM; in assay [9], 3.87 µM; in assay [1] it was 2.82 µM; in [2] it was 2100 nM; in assay [3], 1.79 µM; in assay [4] it was 2910 nM. The GI50 was 5.34 µM in assay [6] and 3.05 µM in assay [7]. Further, the TGI in [8] is over 100 µM; in [9] it was over 100 µM; in assay [1], over 100 µM; in [2], over 100 µM; in assay [3], 3.34 µM; in [4], over 100 µM. The TGI in assay [6] was over 100 µM; in [7], 8.24 µM.
On to `COc1cc2ccc(/C(C)=N/OC(C)=O)cc2cc1OC`, for which the TGI in assay [8], in assay [9], in assay [2], in assay [4], in [10] and in assay [6] was over 100 µM each time. In assay [7], this molecule had a TGI of over 100 µM.
`O=C(O)CN(c1ccccc1)S(=O)(=O)c1ccc(Cl)cc1`: the TGI in assay [8], in assay [9], in assay [2], in assay [4], in [10] and in assay [6] was over 100 µM in each case. This molecule had a TGI in [7] of over 100 µM.
For the molecule `O=C1C(Cl)=C(Nc2cccc(O)c2)C(=O)N1c1cccc(Cl)c1`, the GI50 is 28.8 µM in [8]; 71.5 µM in assay [9]; 52.7 µM in assay [1]; 57700 nM in assay [2]; 50.4 µM in [3]; 28800 nM in assay [4]. For the same molecule, the values for the GI50 in [10] and in assay [7] were 21.9 µM and 56.5 µM, respectively. Further, the TGI in assay [8], in [9], in assay [1], in [2], in assay [3] and in [4] was over 100 µM in each case. For the same molecule, the TGI in assay [10] is 59.8 µM; in assay [7] it was over 100 µM.
`O=C(N/C(=C\c1ccc([N+](=O)[O-])cc1)c1nc2ccc(Cl)cc2[nH]1)c1ccccc1`: the TGI in [8] was 42.8 µM; in [9] it was over 100 µM; in [2], 34.9 µM; in assay [3] it was 33.7 µM; in assay [4], 31.3 µM; in assay [10], 41.9 µM. For the same molecule, the TGI in [5] worked out at 33.8 µM; in assay [7] it was 94.6 µM.
Consider `S=P(c1ccccc1)(c1ccccc1)C1(C2(P(=S)(c3ccccc3)c3ccccc3)CC2)CC1`, for which the TGI in [8], in assay [9], in [1], in [2], in assay [3] and in [4] was over 100 µM throughout. Moreover, the TGI in assay [10] and in [5] was over 100 µM in each case.
With `COc1ccc(-c2csc(NC(=O)N3CCN(c4cc5c(cc4F)c(=O)c(C(=O)O)cn5C4CC4)CC3)n2)cc1`, the GI50 is 1.23 µM in [8]; 3.29 µM in assay [9]; 3.02 µM in [1]; 660 nM in assay [2]; 2310 nM in assay [4]; 1.49 µM in assay [10]. The GI50 in assay [5] was 3830 nM. Further, the TGI in [8] was over 100 µM; in assay [9] it was over 100 µM; in assay [1] it was 32.6 µM; in assay [2] it was 16.8 µM; in assay [4], over 100 µM; in assay [10], over 100 µM. In assay [5], the TGI was over 100 µM.
